Among the data in paper PMC3445454, “Broad and Cross-Clade CD4^+ T-Cell Responses Elicited by a DNA Vaccine Encoding Highly Conserved and Promiscuous HIV-1 M-Group Consensus Peptides” (PLoS ONE, 2012) are IC50 values, retold here.

Where a chain is given by its changes, count along the chain named. Ends that are not written are not given here.

Holding throughout (assay): biochemical
The target of one assay is HLA-DR DRB1*10:01 (Homo sapiens, UniProt P01903+P01911, A100R/A169T/D57E/F55L/F60V/F69Y/F76Y/I96L/L162R/M171V/P40V/Q260P/Q39E/Q99R/R195Q/R42F/S149N/S66Y/T210M/V115G/V67A/W38E/Y59R/Y61H). Format: binding.
The target of another assay is HLA-DR DRB5*01:01 (Homo sapiens, UniProt P01903+Q30154). It counts as binding.
The next assay concerns the target HLA-DR DRB1*03:01 (Homo sapiens, UniProt P01903+P01911, A100K/A102G/A103R/A169T/F55Y/I96L/K41T/L162R/M171V/P40S/Q125H/Q178H/Q39Y/R42S/S66N/T106N/T262R/W38E/Y61H). It counts as binding.
In another assay the target is HLA-DR DRB3*01:01 (Homo sapiens, UniProt P01903+P79483). It counts as binding. As to conditions: read-out: Binding capacity/IC50 (nM) DRB3*01:01.
Assay [1] addresses T1, HLA-DP DPA1*01:03/DPB1*20:01 (Homo sapiens, UniProt P04440+P20036, A65V/A84D/A85E/E86D/F38Y/G113D/G114E/G40L/I94L/L37V/M116V/P115A/R125K/T199I).
T1 sequence (P20036 29-260): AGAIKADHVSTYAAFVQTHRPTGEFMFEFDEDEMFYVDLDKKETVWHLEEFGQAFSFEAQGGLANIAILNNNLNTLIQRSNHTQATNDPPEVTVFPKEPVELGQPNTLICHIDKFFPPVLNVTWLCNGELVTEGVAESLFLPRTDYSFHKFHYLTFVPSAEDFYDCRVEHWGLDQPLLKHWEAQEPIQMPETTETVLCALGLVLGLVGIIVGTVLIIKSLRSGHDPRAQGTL
T1 sequence (P04440 30-258 L37V/F38Y/G40L/A65V/A84D/A85E/E86D/I94L/G113D/G114E/P115A/M116V/R125K/T199I/V234M): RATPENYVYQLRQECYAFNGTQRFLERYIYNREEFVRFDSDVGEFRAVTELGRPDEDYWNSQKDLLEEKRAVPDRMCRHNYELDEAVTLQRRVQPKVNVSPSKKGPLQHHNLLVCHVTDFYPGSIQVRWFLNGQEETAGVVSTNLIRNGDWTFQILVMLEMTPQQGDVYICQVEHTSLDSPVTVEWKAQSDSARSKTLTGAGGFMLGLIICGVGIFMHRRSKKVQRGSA
It counts as binding. As to conditions: read-out: Binding capacity/IC50 (nM) DPA1*01:03 DPB1*20:01.

In assay [2] the target is HLA-DP DPA1*02:01/DPB1*01:01 (Homo sapiens, UniProt P04440+P20036, F191V/F38Y/F64Y/G113D/G114E/K142R/L158P/L37V/M105V/M116V/M62Q/P115A/Q81R/R125K/R223Q/T114A/T199I/T259P).
Chain of HLA-DP DPA1*02:01/DPB1*01:01 (P20036 29-260 A42M/M62Q/Q81R/T114A/K142R/L158P/F191V/T259P, other chains not shown): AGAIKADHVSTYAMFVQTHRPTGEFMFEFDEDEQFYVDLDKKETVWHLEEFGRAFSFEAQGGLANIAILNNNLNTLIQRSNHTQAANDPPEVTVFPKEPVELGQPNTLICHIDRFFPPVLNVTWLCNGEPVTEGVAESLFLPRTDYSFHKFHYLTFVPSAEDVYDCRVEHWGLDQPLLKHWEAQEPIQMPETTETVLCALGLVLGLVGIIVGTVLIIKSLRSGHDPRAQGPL
The target of the next assay is HLA-DR DRB1*07:01 (Homo sapiens, UniProt P01903+P01911, A100R/A102G/A103Q/D57E/D86V/E43K/F76Y/K127E/L162R/M171V/P40G/Q125H/Q99D/R33Q/R42Y/R54Q/S133A/S66F/T210M/V115G/Y107V/Y59L/Y89S). Format: binding.
The target in assay [3] is T2, HLA-DP DPA1*02:01/DPB1*05:01 (Homo sapiens, UniProt P04440+P20036, A65V/A84E/F191V/F64L/G113D/G114E/K142R/L158P/M116V/M62Q/P115A/Q81R/R125K/T114A/T199I/T259P/V234M).
T2 sequence (P20036 29-260 A42M/M62Q/Q81R/T114A/K142R/L158P/F191V/T259P): T1 sequence (P20036 29-260) with A14M, M34Q, Q53R, T86A, K114R, L130P, F163V, T231P
T2 sequence (P04440 30-258 F64L/A65V/A84E/G113D/G114E/P115A/M116V/R125K/T199I/V234M): T1 sequence (P04440 30-258 L37V/F38Y/G40L/A65V/A84D/A85E/E86D/I94L/G113D/G114E/P115A/M116V/R125K/T199I/V234M) with V8L, Y9F, L11G, F35L, D55E, E56A, D57E, L65I
Format: binding. As to conditions: read-out: Binding capacity/IC50 (nM) DPA1*02:01 DPB1*05:01.

The target of assay [4] is T3, HLA-DP DPA1*01:03/DPB1*04:01 (Homo sapiens, UniProt P04440+P20036).
T3 sequence (P20036 29-260): T1 sequence (P20036 29-260)
T3 sequence (P04440 30-258): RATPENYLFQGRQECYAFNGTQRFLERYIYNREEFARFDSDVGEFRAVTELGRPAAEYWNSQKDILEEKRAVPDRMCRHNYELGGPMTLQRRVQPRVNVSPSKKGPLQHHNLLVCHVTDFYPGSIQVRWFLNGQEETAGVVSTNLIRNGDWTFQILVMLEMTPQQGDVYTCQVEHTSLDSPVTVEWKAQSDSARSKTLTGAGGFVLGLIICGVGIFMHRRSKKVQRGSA
It counts as binding.

For a further assay, the target named is HLA-DR DRB1*11:01 (Homo sapiens, UniProt P01903+P01911, A100R/A169T/A87E/I96F/K41T/L162R/M171V/P40S/Q125H/Q178H/Q39Y/Q99D/R42S/S66Y/T262R/V115G/W38E). Format: binding.
Chain of HLA-DR DRB1*11:01 (P01903 26-254 limits assumed, other chains not shown): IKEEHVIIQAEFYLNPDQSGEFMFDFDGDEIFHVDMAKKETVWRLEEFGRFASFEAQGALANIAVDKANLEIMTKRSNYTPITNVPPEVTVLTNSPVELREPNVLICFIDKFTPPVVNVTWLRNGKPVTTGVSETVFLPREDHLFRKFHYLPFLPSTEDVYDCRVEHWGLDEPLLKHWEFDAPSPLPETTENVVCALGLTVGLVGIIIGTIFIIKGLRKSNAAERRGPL
The next assay addresses HLA-DR DRB1*09:01 (Homo sapiens, UniProt P01903+P01911, A100R/A103E/D57H/D86V/F55Y/F60I/F76Y/I96F/K127E/L162R/M171V/P40D/Q125H/Q99R/R33Q/R42F/S133A/S66N/T210M/V115G/W38K/Y107V/Y59G/Y89S). It counts as binding.

Chain of HLA-DR DRB1*03:01 (P01903 26-254 limits assumed, other chains not shown): as above

As for “VVIQDNSDIKVVPRRKAKII-NH2 [integrase(249-268)]”, the IC50 at HLA-DR DRB1*10:01 came out at 913 nM; against HLA-DR DRB5*01:01, 46 nM; at HLA-DR DRB1*03:01, 90 nM; on HLA-DR DRB3*01:01, 2650 nM; in [1], 1080 nM; in assay [2], 5.73 µM. In addition, the IC50 against HLA-DR DRB1*07:01 was 5.71 µM; in assay [3] it was 329 nM; in assay [4], 9.12 µM; at HLA-DR DRB1*11:01, 28 nM; at HLA-DR DRB1*09:01 it was 7.04 µM.
